What was measured:
mOR-I7 [1] = target: T1, mOR-I7 (Mus musculus, UniProt Q9QWU6); experiment: Novel olfactory functional assay (CCBSA), microplate calcium flux (Fluo4, FDSS) on HEK 293T overexpressing mOR-I7; format: cell-based; conditions: for hits / potential ligands of mOR-I7 through the 4 screenings / ligands of mOR-I7 in two independent calcium flux screenings of 30 odorants: BSA as carrier; for hits / potential ligands of mOR-I7 through the 4 screenings: calcium flux and cAMP screenings together; for ligands of mOR-I7 in two independent calcium flux screenings of 30 odorants: standardized to 100 μM ATP; for hit / potential ligand of mOR-I7 in screening of 30 odorants: carrier fraction 4 (bOBP and BSA) incubated with 16 μl of 1M odorant, ratio mOR-I7 on Wt, standardized to 1 mM ATP
T1 construct: expressed in transfected cells; host or cells: HEK 293T
T1 sequence (Q9QWU6 1-327): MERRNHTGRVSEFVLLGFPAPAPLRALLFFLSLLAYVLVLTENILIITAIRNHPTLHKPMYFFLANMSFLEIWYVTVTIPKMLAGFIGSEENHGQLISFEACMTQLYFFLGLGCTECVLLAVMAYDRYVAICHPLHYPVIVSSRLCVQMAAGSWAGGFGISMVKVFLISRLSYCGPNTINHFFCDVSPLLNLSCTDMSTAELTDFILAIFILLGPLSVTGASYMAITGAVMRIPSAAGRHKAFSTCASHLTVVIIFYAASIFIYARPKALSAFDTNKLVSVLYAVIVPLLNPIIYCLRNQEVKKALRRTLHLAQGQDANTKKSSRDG
Method: (§1) A solution of BP including SA, OBP and/or olfactory mucus (see concentration in the text) was incubated in the presence of odorant in a sealed flask for 16 hours at 4° C. (FIG. 3A). Such incubated-BP solution was then used as tested complex on olfactory receptor-expressing cells. Prior to incubation with such complex, cells were incubated for 1 hour with 4 μM Fluo4-AM (Molecular Probe) in the presence of 1 mM probenecid, and then rinsed twice with Fluo4-AM free HBSS buffer. After injection of odorant-BP complex on OR expressing cells, calcium flux was followed by measuring fluorescence at 520 nm ([…]) on FDSS, a plate reader from Hamamatsu Photonics K.K. (Japan) at 25° C.
In an attempt to be closer to physiological process of olfaction and thereof to increase specificity and sensitivity of the cell-based assay described above, a novel olfactory functional assay was developed. Most of the time, mammalian smells volatile odorant molecules. However in the cell-based assay described above as in most cell-based assays, odorant molecules were injected into aqueous buffer. Such injection may lead to formation of micelles that can alter efficacy and specificity of ligands. Therefore a cell-based assay was developed focusing an a better solubilization of odorants. In summary, in a sealed flask, bovine olfactory mucus was incubated in the presence of an odorant (FIG. 3A). It was hereby tested if an odorant would be trapped and solubilized in that fluid. Thereafter, such solubilized odorant was injected onto cultured-cells overexpressing an olfactory receptor. Activation of this receptor could then be followed by conventional assay including fluorescent (FIGS. 3 B and C) and luminescent calcium assays.
For this novel assay, mOR-I7 activation was assessed by octanal. A constant volume of olfactory mucus was incubated in the presence of increasing amount of octanal ranging from 0 to 16 μl of a solution of 1M octanal. After 16 hours incubation at 4° C., bovine olfactory mucus was injected on HEK 293T overexpressing mOR-I7. Calcium flux was followed with Fluo4 on FDSS, a plate reader from Hamamatsu Photonics K.K. (Japan).
Capacity of fraction 4 to fulfil the role of odorant solubilizator was assessed in the newly proposed assay. Screening of 30 odorant molecules (FIG. 5A) was performed on HEK 293T wild type (FIG. 5C) or overexpressing mOR-I7 (FIG. 5B). Fraction 4 was incubated overnight at 4° C. […] These odorants led to at least one fold more activation of HEK 293T overexpressing mOR-I7 than the wild type counterpart. They can be classified into two groups. One group (FIG. 5 E (a) to (e)) gathers molecules that fit the olfactophore 1 depicted in FIG. 5 E (j). They are schematically made of 2 electronegative poles distanced by 6 carbons. They all contain a 6-8 carbon chain ended by an electronegative group as depicted by olfactophore 2 represented in FIG. 5 E (k).
However this fraction 4 contained two major proteins, bOBP and BSA. Thus the results of said Example could in this approach not rule out any implication of BSA into fraction 4 properties. Therefore the capacity of BSA to solubilize and thereof to enhance the efficacy of odorants in the novel cell based olfactory functional assay as described by the present invention has been tested. To be as close as possible to BSA concentration observed in fraction 4. BSA concentration was set up at 5×10^−6 M for the following experiments (marked by an arrow on FIG. 6 G). Fraction 4 and a solution of fatty acid-free BSA were incubated at 4° C. for 16 hours in the presence of increasing volume of 1M octanal. So-incubated solutions were then applied onto HEK 293T wt or overexpressing mOR-I7. Calcium-flux was followed on a plate reader (Hamamatsu Photonics K.K., Japan) with fluo4 as fluorescent dye (FIG. 6 A to F). […] Such phenomenon is usually observed in such fluorescence assay when increasing ligand concentrations are injected. […]

mOR-I7 [2] = target: T1, mOR-I7; experiment: cAMP level immunoassay (TROPIX) in the novel assay on HEK 293T overexpressing mOR-I7; format: cell-based; conditions: BSA solution incubated with 16 μl of 1 M odorant; 20 minutes incubation
Method: Similarly to the first step of the fluorescence-based functional assay described above, BP solutions including SA, OBP and/or olfactory mucus (see concentration in the text) were incubated in the presence of odorant in a sealed flask for 16 hours at 4° C. (FIG. 3A). Such odorant-BP complexes were then applied to cultured-cell for 20 minutes at 37° C. cAMP level was then measured using the Tropix kit according to the manufacturer procedures (Applied Biosystem).
As depicted in FIG. 1, binding of odorant molecule to olfactory receptor triggers a cascade of molecular events. In the most commonly accepted pathway, the first second messenger is cAMP synthesized by adenylate cyclase type III. Therefore, a mean to test olfactory receptor activation is to assess variation of cellular cAMP pool after olfactory receptor activation. It is noteworthy that such assay could be performed in parallel to calcium flux assay described above to validate hits obtained during a screening.
Specificity of the novel cell based olfactory functional assay according to the present invention was tested following mOR-I7 activation after injection of these three odorants and two non related odorant, vanilline and piperonyl isobutyrate. Olfactory receptor activation was detected by cellular cAMP pool immunoassay. A solution of BSA was incubated overnight at 4° C.
As discussed above (FIG. 1), activation of olfactory receptor can also be followed through cAMP synthesis. […] Results are expressed as percent of response observed after incubation with 100 μM forskolin, an activator of adenylate cyclases. […] Scheme of the odorant molecules are depicted in FIG. 7E.

mOR-I7 [3] = target: T1, mOR-I7; conditions: literature (references); cited from earlier work
hORL-424 = experiment: Fluorescent calcium flux assay on HEK 293T overexpressing hORL-424, odorant in assay buffer with or without bovine olfactory mucus; format: cell-based, human
Method: FIG. 2: Bovine olfactory mucus enhances hORL-424 activation by citronellal. (A and B) Calcium measurement was performed after activation of hORL-424 with citronellal in the presence of different amount of bovine olfactory mucus. 0 to 10 μl of mucus (0 to 10 μg of total protein) have been added to assay buffer. Calcium flux has been followed on FDSS (Hamamatsu Photonics K.K. plate reader, Japan) using Fluo4 as fluorescent dye. Histograms represent fluorescent signal observed in the presence or in the absence of 10 μl of bovine olfactory mucus. (C) Concentration response curve of HEK 293T overexpressing hORL-424 treated with citronellal. Gray boxes represent values obtained in the presence of bovine olfactory mucus. Calcium flux measurements have been performed on FDSS (Hamamatsu Photonics K.K. plate reader, Japan). (D and E) Traces obtained during single cell calcium imaging after addition of 500 μM octanal on HEK 293T overexpressing mOR-I7 in the absence (D) or in the presence of 10 μl of bovine olfactory mucus (E). Fura2 was used as fluorescent dye. Results are expressed as F340/F380 ratiometric measurement.
as §1
hORL-424, a human olfactory receptor, was overexpressed in HEK 293T, a […] (Hunter). […]

## CCCCC(=O)C(C)=O [2,3 heptanedione]
mOR-I7 [1]
  hits / potential ligands of mOR-I7 through the 4 screenings: hits
  ligands of mOR-I7 in two independent calcium flux screenings of 30 odorants: consistent
  hit / potential ligand of mOR-I7 in screening of 30 odorants: potential ligands of mOR-I7 and hits

## COCCc1ccc(O)cc1 [4(2-methoxyethyl)phenol]
mOR-I7 [1]
  hit / potential ligand of mOR-I7 in screening of 30 odorants: potential ligands of mOR-I7
mOR-I7 [1]; listed as 4-(2-methoxyethyl)-phenol
  hit / potential ligand of mOR-I7 in screening of 30 odorants: hits

## COc1cc(C=O)ccc1O [Vanilline]
mOR-I7 [2]
  mOR-I7 activation by cellular cAMP pool: did not lead to cAMP synthesis

## COc1cc(CCC(C)=O)ccc1O [Vanillyl acetone]
mOR-I7 [1]
  hit / potential ligand of mOR-I7 in screening of 30 odorants: potential ligands of mOR-I7 and hits

## CC/C=C\CCCCC=O [cis-6-nonenal]
mOR-I7 [1]
  hit / potential ligand of mOR-I7 in screening of 30 odorants: potential ligands of mOR-I7
mOR-I7 [1]; listed as 6-cis-nonenal
  hit / potential ligand of mOR-I7 in screening of 30 odorants: hits

## CC(C)=CCCC(C)CC=O (stereo not shown) [citronellal]
mOR-I7 [2]
  mOR-I7 activation by cellular cAMP pool: mOR-I7 ligands
mOR-I7 [3]
  known activation of mOR-I7: activated specifically
mOR-I7 [1]
  hits / potential ligands of mOR-I7 through the 4 screenings: hits
  hit / potential ligand of mOR-I7 in screening of 30 odorants: potential ligands of mOR-I7 and hits
hORL-424; bovine olfactory mucus in assay buffer vs absence, fluo4, 96-well plate
  improvement of hORL-424 activation on addition of bovine olfactory mucus: approximately 9 folds
hORL-424; conventional assay, no mucus
  concentration necessary to reach maximum activation of hORL-424: up to 10 mM
hORL-424; olfactory mucus added in the assay buffer
  concentration sufficient to reach maximum activation of hORL-424: 0.5 mM

## CC(C)=CCCC(C)CCO (stereo not shown) [citronellol]
mOR-I7 [1]
  ligands of mOR-I7 in two independent calcium flux screenings of 30 odorants: consistent
  hit / potential ligand of mOR-I7 in screening of 30 odorants: potential ligands of mOR-I7 and hits

## CCCCCCC=O [heptanal]
mOR-I7 [2]
  mOR-I7 activation by cellular cAMP pool: mOR-I7 ligands
mOR-I7 [3]
  known activation of mOR-I7: activated specifically
mOR-I7 [1]
  hits / potential ligands of mOR-I7 through the 4 screenings: hits
  ligands of mOR-I7 in two independent calcium flux screenings of 30 odorants: consistent

## CCCCCCCO [heptanol]
mOR-I7 [1]
  hits / potential ligands of mOR-I7 through the 4 screenings: hits
  ligands of mOR-I7 in two independent calcium flux screenings of 30 odorants: consistent
  hit / potential ligand of mOR-I7 in screening of 30 odorants: potential ligands of mOR-I7
mOR-I7 [1]; listed as 1-heptanol
  hit / potential ligand of mOR-I7 in screening of 30 odorants: hits

## CCCCCCCCO [octanol]
mOR-I7 [1]
  hits / potential ligands of mOR-I7 through the 4 screenings: hits
  ligands of mOR-I7 in two independent calcium flux screenings of 30 odorants: consistent
  hit / potential ligand of mOR-I7 in screening of 30 odorants: potential ligands of mOR-I7
mOR-I7 [1]; listed as 1-octanol
  hit / potential ligand of mOR-I7 in screening of 30 odorants: hits

## CC(C)C(=O)OCc1ccc2c(c1)OCO2 [piperonyl isobutyrate]
mOR-I7 [2]
  mOR-I7 activation by cellular cAMP pool: did not lead to cAMP synthesis
